Test results taken from US4293483A, “Derivatives of A-30912A nucleus” (priority 1980, dated 1981).
Values joined by “and” are separate entries in the source; they are usually repeats but may differ in a detail not shown here. Equal values may be shown once. Read-outs that look alike come from different tables or passages of the source. Numbered stars: 1 amine (or outer) side, 2 acyl side, 3 side chain; on linkers, the order of the positions; unused ones are H or OH. Bridge positions count the residues as written; N and C are the ends. Square brackets hold non-standard residues; d marks the D form. Peptide text beside a SMILES is read from it. * marks the point of attachment. ξ: configuration not given here. Orn(4R-OH,5R-OH) = O=C([C@H](C[C@@H](O)[C@@H](O)N[*:3])N[*:1])[*:2]; hTyr(3S-OH,4S-OH) = N[C@H](C(=O)O)[C@H](O)[C@@H](O)c1ccc(O)cc1; Pro(3S-OH,4S-Me) = C[C@H]1CN[C@H](C(=O)O)[C@H]1O; X5 = O=C(c1cc(Cl)cc(N[*:1])c1Cl)[*:2]; Palmitoyl = CCCCCCCCCCCCCCCC(=O)*; Hyp = O=C(O)[C@@H]1C[C@@H](O)CN1; X2 = O=C(Cc1ccc(N[*:1])cc1)[*:2]; Myristoyl = CCCCCCCCCCCCCC(=O)*; X3 = O=C(c1cccnc1N[*:1])[*:2]; Lauroyl = CCCCCCCCCCCC(=O)*; 4Abz = Nc1ccc(C(=O)O)cc1; ξF = NC(Cc1ccccc1)C(=O)O

Assays:
[1] = system: Saccharomyces pastorianus X-52; assay: Agar plate disc diffusion test, zone of inhibition; type: cell-based; conditions: Saccharomyces pastorianus, X52, 48 h, 1 mg/ml suspension in methanol, 7 mm disc, 24-48 hours at 25-37° C.
Method: (§1) ^(a) Compounds were tested as suspension in methanol.
(§2) were tested at a concentration of 1 mg/ml by a dipping 7mm disc into the
(§3) suspension and placing it on the agar surface. Incubation: 24-48 hours at

Neurospora Crassa 846 = assay: Agar plate disc diffusion test, zone of inhibition; type: cell-based; conditions: Neurospora crassa, 1 mg/ml, 7 mm disc, * measurable zone of inhibition with regrowth of organism around disc
Method: as §1, §2, §3

[2] = system: Trichophyton mentagrophytes; assay: Agar plate disc diffusion test, zone of inhibition; type: cell-based; conditions: 1 mg/ml, 7 mm disc, * measurable zone of inhibition with regrowth of organism around disc, read-out: Size of Zone of Inhibition (*)
Method: as §1, §2, §3

Candida albicans A-26 [3] = assay: Agar plate disc diffusion test, zone of inhibition; type: cell-based; conditions: 1 mg/ml suspension in methanol, 7 mm disc, 24-48 hours at 25-37° C., no regrowth mark
Method: as §1, §2, §3

Candida albicans A-26 [4] = assay: Agar plate disc diffusion test, MIC per disc; type: cell-based; conditions: 0.01M sodium borate, pH 7.5, 24 hours at 30° C.
Method: (§4) In Table 5, activity is measured by the minimal inhibitory concentration (MIC) of the substance (μg/disc) required to inhibit growth of the test organism.
(§5) *Compounds were suspended in 0.01M sodium borate solution, pH 7.5.
(§6) compounds were tested at 20 μg/disc at top level and at twofold
(§7) dilutions until end points were reached.

[5] = system: Trychophyton mentagrophytes #6; assay: Agar plate disc diffusion test, MIC per disc; type: cell-based; conditions: 0.01M sodium borate, pH 7.5, 24 hours at 30° C.
Method: as §4, §5, §6, §7

Candida albicans A-26 [6] = assay: Therapeutic activity against Candida albicans A-26 infection in mice; type: in vivo; conditions: A26, sc
Method: The results of in vivo tests to evaluate the effectiveness of the compound of Examples 61-81, 86 and 88 against an infection caused by Candida albicans A-26 in mice are given in Table 7, where activity is measured by the ED50 value (the dose in mg/kg. required to cure 50% of the test animals). Where an ED50 value was not obtained, activity is indicated by the lowest dose at which a significant anti-fungal effect is observed. In this test, groups of male albino mice (specific pathogen free), weighing 18 to 20 grams, are infected intravenously with Candida albicans A-26. The animals are X-irradiated 24 hours prior to infection at about 50 roentgens per minute for 8 minutes (400 total dose) to reduce immune responses to the infecting organism. At 0, 4, and 24 hours post infection each group of mice is given graded doses subcutaneously of the test compound as a suspension in 33% polyethylene glycol-water. The day of death for each animal is recorded.
*Dosage Schedule: 40, 20, 15, and 10 mg/kg. Dosages given 0, 4, and 24
hours post injection as suspension of test compound in 30% PEGH2 O.
Number of mice receiving test compounds at each dosage level: 6 mice per
group. Number of mice in control (untreated) group: 10 mice per group.
**As measured by increase in survival time of treated animals versus
control, calculated by method of Reed V. Mueuch, American J. Hygiene, 493

[7] = Blood levels after oral administration in mice; conditions: for concentration at 4 h: mouse, po, 416 mg/kg
Method: (§8) In this test, mice are gavaged with a dose of 416 mg/kg of the test compound suspended in 33% PEG 400-water. At time intervals, blood samples are taken from the orbital sinus and are assayed for antibiotic activity as follows: A 7 mm. disc containing 20 μl of whole blood is placed on agar seeded with Aspergillus montevidensis A35137. After 40 hours incubation at 30° C. zones of inhibition from the blood samples are compared to a standard obtained from the test compound, and the amount of compound in the blood sample is calculated.

in vivo = conditions: mouse, po, 416 mg/kg
Method: as §8

[8] = mouse, in vivo, 416 mg/kg, 240 min
Method: as §8

[9] = Saccharomyces pastorianus X-52, read-out: Size of Zone of Inhibition
[10] = CRASSA846, Neurospora Crassa 846, read-out: Size of Zone of Inhibition (*)
[11] = read-out: Lowest Active Dose, subcutaneous at 0, 4 and 24 hours post infection, lowest dose with significant anti-fungal effect
[12] = subcutaneous at 0, 4 and 24 hours post infection, dose to cure 50% of test animals, by increase in survival time, read-out: ED50
[13] = subcutaneous at 0, 4 and 24 hours post infection, lowest dose with significant anti-fungal effect, read-out: Lowest Active Dose

Structure (SMILES) | zone of inhibition at 1000 µg/mL [1, 9] | zone of inhibition at 1000 µg/mL (Neurospora Crassa 846; [10]) | zone of inhibition at 1000 µg/mL [2] | Size of Zone of Inhibition (Candida albicans A-26 [3]) | MIC (Candida albicans A-26 [4]) | MIC [5] | ED50 (Candida albicans A-26 [6]) | minimal effective dose (Candida albicans A-26 [6]; [11]) | concentration at 4 h ([7]; blood) | zone of inhibition at 1000 µg/mL ([1]; read-out: Size of Zone of Inhibition, Saccharomyces pastorianus X-52) | zone of inhibition at 1000 µg/mL (Neurospora Crassa 846; CRASSA846, read-out: Size of Zone of Inhibition (*), Neurospora Crassa 846) | concentration at 4 h ([7]; in vivo) | ED50 (Candida albicans A-26 [6]; [12]) | minimal effective dose (Candida albicans A-26 [6]; [13]) | concentration at 4 h (in vivo) | Blood Levels ([7]; mice, 416 mg/kg by gavage in 33% PEG 400-water, four hours after administration, bioassay vs. Aspergillus montevidensis A35137) | Blood Levels [8]
CCCCCCCCCCCC(=O)Nc1cc(Cl)cc(C(=O)N[C@H]2C[C@@H](O)[C@@H](O)NC(=O)[C@@H]3[C@@H](O)[C@@H](C)CN3C(=O)[C@H]([C@@H](C)O)NC(=O)[C@H]([C@H](O)[C@@H](O)c3ccc(O)cc3)NC(=O)[C@@H]3C[C@@H](O)CN3C(=O)[C@H]([C@@H](C)O)NC2=O)c1Cl [Example 67] (Lauroyl-[X5][Orn(4R-OH,5R-OH)]T[Hyp][hTyr(3S-OH,4S-OH)]T[Pro(3S-OH,4S-Me)]; lactam 2-C) | 19 mm | 35 mm | 44 mm | 27 mm | 0.625 μg/disc | < 0.039 μg/disc | 14 mg/kg | 10 mg/kg | 530 ng/mL |  |  |  |  |  |  |  | 
CCCCCCCCCCCCCCCC(=O)Nc1ccc(C(=O)N[C@H]2C[C@@H](O)[C@@H](O)NC(=O)[C@@H]3[C@@H](O)[C@@H](C)CN3C(=O)[C@H]([C@@H](C)O)NC(=O)[C@H]([C@H](O)[C@@H](O)c3ccc(O)cc3)NC(=O)[C@@H]3C[C@@H](O)CN3C(=O)[C@H]([C@@H](C)O)NC2=O)cc1 [Example 81] ({Palmitoyl-4Abz}-[Orn(4R-OH,5R-OH)]T[Hyp][hTyr(3S-OH,4S-OH)]T[Pro(3S-OH,4S-Me)]; lactam 1-C) | 24 mm |  |  | 25 mm | 0.312 μg/disc | < 0.039 μg/disc | 7 mg/kg | 5 mg/kg | 36000 ng/mL |  |  |  |  |  |  |  | 
CCCCCCCCCCCC(=O)Nc1ccc(C(=O)NCC(=O)N[C@H]2C[C@@H](O)[C@@H](O)NC(=O)[C@@H]3[C@@H](O)[C@@H](C)CN3C(=O)[C@H]([C@@H](C)O)NC(=O)[C@H]([C@H](O)[C@@H](O)c3ccc(O)cc3)NC(=O)[C@@H]3C[C@@H](O)CN3C(=O)[C@H]([C@@H](C)O)NC2=O)cc1 [Example 74] ({Lauroyl-4Abz}-G[Orn(4R-OH,5R-OH)]T[Hyp][hTyr(3S-OH,4S-OH)]T[Pro(3S-OH,4S-Me)]; lactam 2-C) |  |  |  | 15 mm | 10 μg/disc | 0.078 μg/disc | > 40 mg/kg | > 40 mg/kg |  | 13 mm | 28 mm | 640 ng/mL |  |  |  |  | 
CCCCCCCCCCCC(=O)Nc1ccc(CC(=O)N[C@H]2C[C@@H](O)[C@@H](O)NC(=O)[C@@H]3[C@@H](O)[C@@H](C)CN3C(=O)[C@H]([C@@H](C)O)NC(=O)[C@H]([C@H](O)[C@@H](O)c3ccc(O)cc3)NC(=O)[C@@H]3C[C@@H](O)CN3C(=O)[C@H]([C@@H](C)O)NC2=O)cc1 [Example 72] (Lauroyl-[X2][Orn(4R-OH,5R-OH)]T[Hyp][hTyr(3S-OH,4S-OH)]T[Pro(3S-OH,4S-Me)]; lactam 2-C) | 20 mm | 30 mm | 55 mm | 19 mm | 2.5 μg/disc | 0.078 μg/disc |  |  |  |  |  |  | > 40 mg/kg | 40 mg/kg | 340 ng/mL |  | 
CC(=O)Nc1ccc(C(=O)N[C@H]2C[C@@H](O)[C@@H](O)NC(=O)[C@@H]3[C@@H](O)[C@@H](C)CN3C(=O)[C@H]([C@@H](C)O)NC(=O)[C@H]([C@H](O)[C@@H](O)c3ccc(O)cc3)NC(=O)[C@@H]3C[C@@H](O)CN3C(=O)[C@H]([C@@H](C)O)NC2=O)cc1 [Example 77] (Ac-[4Abz][Orn(4R-OH,5R-OH)]T[Hyp][hTyr(3S-OH,4S-OH)]T[Pro(3S-OH,4S-Me)]; lactam 2-C) | 17 mm | 24 mm | 51 mm | 24 mm | > 20 μg/disc and 40 μg/disc | 0.312 μg/disc | > 40 mg/kg | > 40 mg/kg |  |  |  |  |  |  |  | 0 ng/mL | 
CCCCCCCCCCCC(=O)Nc1ncccc1C(=O)N[C@H]1C[C@@H](O)[C@@H](O)NC(=O)[C@@H]2[C@@H](O)[C@@H](C)CN2C(=O)[C@H]([C@@H](C)O)NC(=O)[C@H]([C@H](O)[C@@H](O)c2ccc(O)cc2)NC(=O)[C@@H]2C[C@@H](O)CN2C(=O)[C@H]([C@@H](C)O)NC1=O [Example 75] (Lauroyl-[X3][Orn(4R-OH,5R-OH)]T[Hyp][hTyr(3S-OH,4S-OH)]T[Pro(3S-OH,4S-Me)]; lactam 2-C) | 14 mm | 30 mm | 54 mm | 24 mm | 2.5 μg/disc | 0.078 μg/disc |  |  |  |  |  |  | > 40 mg/kg | > 40 mg/kg |  |  | 0 ng/mL
CCCCCCCCCCCC(=O)NC(Cc1ccccc1)C(=O)N[C@H]1C[C@@H](O)[C@@H](O)NC(=O)[C@@H]2[C@@H](O)[C@@H](C)CN2C(=O)[C@H]([C@@H](C)O)NC(=O)[C@H]([C@H](O)[C@@H](O)c2ccc(O)cc2)NC(=O)[C@@H]2C[C@@H](O)CN2C(=O)[C@H]([C@@H](C)O)NC1=O (stereo partly drawn) [Example 61] (Lauroyl-[ξF][Orn(4R-OH,5R-OH)]T[Hyp][hTyr(3S-OH,4S-OH)]T[Pro(3S-OH,4S-Me)]; lactam 2-C) | 18 mm | 42 mm | 55 mm | 25 mm | 0.625 μg/disc | < 0.039 μg/disc |  |  |  |  |  |  | > 40 mg/kg | > 40 mg/kg |  |  | 0 ng/mL
CCCCCCCCCCCCCC(=O)Nc1ccc(C(=O)N[C@H]2C[C@@H](O)[C@@H](O)NC(=O)[C@@H]3[C@@H](O)[C@@H](C)CN3C(=O)[C@H]([C@@H](C)O)NC(=O)[C@H]([C@H](O)[C@@H](O)c3ccc(O)cc3)NC(=O)[C@@H]3C[C@@H](O)CN3C(=O)[C@H]([C@@H](C)O)NC2=O)cc1 [Example 80] ({Myristoyl-4Abz}-[Orn(4R-OH,5R-OH)]T[Hyp][hTyr(3S-OH,4S-OH)]T[Pro(3S-OH,4S-Me)]; lactam 1-C) | 17 mm |  |  | 22 mm | 1.25 μg/disc | < 0.039 μg/disc | 11 mg/kg | 2.5 mg/kg | 6500 ng/mL |  |  |  |  |  |  |  | 
